Experimental data published in patent US6737383B1, “Herbicidal oxadiazolidines” (priority 1999, dated 2004).

Columns and labels:
bedstraw = assay: Test B pre/postemergence bedstraw; format: in vivo, Galium aparine
Summary of the method: (§1)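 Response is a visual 0-to-10 score relative to untreated plants, where 0 means no effect and 10 means complete control, taken twelve to sixteen days after application. Treatments went onto soil at planting and onto foliage of 1- to 4-leaf plants, using a surfactant-containing non-phytotoxic solvent.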

morningglory = assay: Test B pre/postemergence morningglory; format: in vivo, Ipomoea hederacea
Summary of the method: as §1

rape = assay: Test B pre/postemergence rape; format: in vivo, Brassica napus
Summary of the method: as §1

sugar beet = assay: Test B pre/postemergence sugar beet; format: in vivo, Beta vulgaris
Summary of the method: as §1

velvetleaf = assay: Test B pre/postemergence velvetleaf; format: in vivo, Abutilon theophrasti
Summary of the method: as §1

purple nutsedge = assay: Test B pre/postemergence purple nutsedge; format: in vivo, Cyperus rotundus
Summary of the method: as §1

cocklebur = assay: Test B pre/postemergence cocklebur; format: in vivo, Xanthium strumarium
Summary of the method: as §1

wheat = assay: Test B pre/postemergence wheat; format: in vivo, Triticum aestivum
Summary of the method: as §1

soybean = assay: Test B pre/postemergence soybean; format: in vivo, Glycine max
Summary of the method: as §1

surinam grass = assay: Test B pre/postemergence surinam grass; format: in vivo, Brachiaria decumbens
Summary of the method: as §1

corn = assay: Test B pre/postemergence corn; format: in vivo, Zea mays
Summary of the method: as §1

giant foxtail = assay: Test B pre/postemergence giant foxtail; format: in vivo, Setaria faberii
Summary of the method: as §1

crabgrass = assay: Test B pre/postemergence crabgrass; format: in vivo, Digitaria sanguinalis
Summary of the method: as §1

wild oat = assay: Test B pre/postemergence wild oat; format: in vivo, Avena fatua
Summary of the method: as §1

pigweed = assay: Test B pre/postemergence pigweed; format: in vivo, Amaranthus retroflexus
Summary of the method: as §1

blackgrass = assay: Test B pre/postemergence blackgrass; format: in vivo, Alopecurus myosuroides
Summary of the method: as §1

[1] = Preemergence, Rate 62 g/ha, scale of 0 to 10 where 0 is no effect and 10 is complete control
[2] = Preemergence, Rate 125 g/ha, scale of 0 to 10 where 0 is no effect and 10 is complete control
[3] = Preemergence, Rate 250 g/ha, scale 0 (no effect) to 10 (complete control)
[4] = Preemergence, Rate 500 g/ha, scale of 0 to 10 where 0 is no effect and 10 is complete control
[5] = Rate 500 g/ha, Postemergence, scale 0 to 10, 0 is no effect, 10 is complete control
[6] = Postemergence, Rate 62 g/ha, scale 0 to 10, 0 is no effect, 10 is complete control
[7] = Postemergence, Rate 125 g/ha, scale of 0 to 10 where 0 is no effect and 10 is complete control
[8] = Rate 250 g/ha, Postemergence, scale 0 to 10, 0 is no effect, 10 is complete control
[9] = Rate 500 g/ha, Preemergence, scale 0 to 10 (0 no effect, 10 complete control)

With CC(C)N(C(=O)n1oc(=O)n(CCCCCl)c1=O)c1ccc(F)cc1 [Compound 712] the “Bedstraw plant response rating” value (bedstraw; [1]) was 0, the “Plant response rating, Bedstraw” value (bedstraw; [2]) was 0 and the “Bedstraw plant response rating” value (bedstraw; [3]) was 2. The “Plant response rating, Bedstraw” value (bedstraw; [4]) was 5, the “Bedstraw plant response rating” value (bedstraw; [5]) was 8 and the “Plant response rating, Morningglory” value (morningglory; [6]) was 3. For the same molecule, the “Morningglory plant response rating” value (morningglory; [7]) was 4, the “Morningglory plant response rating” value (morningglory; [1]) was 0 and the “Plant response rating, Morningglory” value (morningglory; [2]) was 0. The “Morningglory plant response rating” value (morningglory; [3]) was 0, the “Morningglory plant response rating” value (morningglory; [8]) was 10 and the “Morningglory plant response rating” value (morningglory; [5]) was 10. For the same molecule, the “Plant response rating, Rape” value (rape; [6]) was 2, the “Rape plant response rating” value (rape; [7]) was 3 and the “Rape plant response rating” value (rape; [1]) was 0. The “Plant response rating, Rape” value (rape; [2]) was 2, the “Rape plant response rating” value (rape; [3]) was 7 and the “Rape plant response rating” value (rape; [8]) was 4. The “Rape plant response rating” value (rape; [5]) was 4, the “Plant response rating, Sugarbeets” value (sugar beet; [6]) was 1 and the “Sugarbeets plant response rating” value (sugar beet; [7]) was 3. The “Sugarbeets plant response rating” value (sugar beet; [1]) was 0, the “Plant response rating, Sugarbeets” value (sugar beet; [2]) was 4 and the “Sugarbeets plant response rating” value (sugar beet; [3]) was 7. The “Sugarbeets plant response rating” value (sugar beet; [5]) was 6, the “Plant response rating, Velvetleaf” value (velvetleaf; [6]) was 0 and the “Velvetleaf plant response rating” value (velvetleaf; [7]) was 5. The “Velvetleaf plant response rating” value (velvetleaf; [1]) was 0, the “Plant response rating, Velvetleaf” value (velvetleaf; [2]) was 3 and the “Velvetleaf plant response rating” value (velvetleaf; [3]) was 3. The “Velvetleaf plant response rating” value (velvetleaf; [8]) was 6, the “Velvetleaf plant response rating” value (velvetleaf; [5]) was 6 and the “Plant response rating, Nutsedge” value (purple nutsedge; [6]) was 0. For the same molecule, the “Nutsedge plant response rating” value (purple nutsedge; [7]) was 0, the “Nutsedge plant response rating” value (purple nutsedge; [1]) was 0 and the “Plant response rating, Nutsedge” value (purple nutsedge; [2]) was 0. For the same molecule, the “Nutsedge plant response rating” value (purple nutsedge; [3]) was 0, the “Nutsedge plant response rating” value (purple nutsedge; [8]) was 0 and the “Nutsedge plant response rating” value (purple nutsedge; [5]) was 0. The “Plant response rating, Cocklebur” value (cocklebur; [6]) was 0, the “Cocklebur plant response rating” value (cocklebur; [7]) was 0 and the “Cocklebur plant response rating” value (cocklebur; [1]) was 0. The “Plant response rating, Cocklebur” value (cocklebur; [2]) was 0, the “Cocklebur plant response rating” value (cocklebur; [3]) was 0 and the “Plant response rating, Cocklebur” value (cocklebur; [4]) was 0. The “Cocklebur plant response rating” value (cocklebur; [8]) was 3, the “Cocklebur plant response rating” value (cocklebur; [5]) was 3 and the “Plant response rating, Wheat” value (wheat; [6]) was 0. The “Wheat plant response rating” value (wheat; [7]) was 0, the “Wheat plant response rating” value (wheat; [1]) was 0 and the “Plant response rating, Wheat” value (wheat; [2]) was 0. For the same molecule, the “Wheat plant response rating” value (wheat; [3]) was 0, the “Wheat plant response rating” value (wheat; [8]) was 0 and the “Wheat plant response rating” value (wheat; [5]) was 5. The “Plant response rating, Soybean” value (soybean; [6]) was 2, the “Soybean plant response rating” value (soybean; [7]) was 5 and the “Soybean plant response rating” value (soybean; [1]) was 0. The “Plant response rating, Soybean” value (soybean; [2]) was 0, the “Soybean plant response rating” value (soybean; [3]) was 0 and the “Soybean plant response rating” value (soybean; [8]) was 5. For the same molecule, the “Soybean plant response rating” value (soybean; [5]) was 5, the “Plant response rating, B. signalgrass” value (surinam grass; [6]) was 0 and the “B. signalgrass plant response rating” value (surinam grass; [7]) was 0. The “B. signalgrass plant response rating” value (surinam grass; [1]) was 3, the “Plant response rating, B. signalgrass” value (surinam grass; [2]) was 5 and the “B. signalgrass plant response rating” value (surinam grass; [3]) was 8. The “Plant response rating, B. signalgrass” value (surinam grass; [4]) was 8, the “B. signalgrass plant response rating” value (surinam grass; [8]) was 4 and the “B. signalgrass plant response rating” value (surinam grass; [5]) was 8. For the same molecule, the “Plant response rating, Corn” value (corn; [6]) was 0, the “Corn plant response rating” value (corn; [7]) was 0 and the “Corn plant response rating” value (corn; [1]) was 0. For the same molecule, the “Plant response rating, Corn” value (corn; [2]) was 0, the “Corn plant response rating” value (corn; [3]) was 0 and the “Corn plant response rating” value (corn; [8]) was 0. The “Corn plant response rating” value (corn; [5]) was 0, the “Plant response rating, Giant foxtail” value (giant foxtail; [6]) was 3 and the “Giant foxtail plant response rating” value (giant foxtail; [7]) was 8. For the same molecule, the “Giant foxtail plant response rating” value (giant foxtail; [1]) was 10, the “Plant response rating, Giant foxtail” value (giant foxtail; [2]) was 10 and the “Giant foxtail plant response rating” value (giant foxtail; [3]) was 10. The “Giant foxtail plant response rating” value (giant foxtail; [8]) was 8, the “Giant foxtail plant response rating” value (giant foxtail; [5]) was 9 and the “Plant response rating, Crabgrass” value (crabgrass; [6]) was 1. For the same molecule, the “Crabgrass plant response rating” value (crabgrass; [7]) was 4, the “Crabgrass plant response rating” value (crabgrass; [1]) was 8 and the “Plant response rating, Crabgrass” value (crabgrass; [2]) was 9. For the same molecule, the “Crabgrass plant response rating” value (crabgrass; [3]) was 10, the “Crabgrass plant response rating” value (crabgrass; [8]) was 9 and the “Crabgrass plant response rating” value (crabgrass; [5]) was 9. The “Plant response rating, Wild oats” value (wild oat; [6]) was 0, the “Wild oats plant response rating” value (wild oat; [7]) was 0 and the “Wild oats plant response rating” value (wild oat; [1]) was 0. For the same molecule, the “Plant response rating, Wild oats” value (wild oat; [2]) was 3, the “Wild oats plant response rating” value (wild oat; [3]) was 3 and the “Wild oats plant response rating” value (wild oat; [8]) was 0. For the same molecule, the “Wild oats plant response rating” value (wild oat; [5]) was 3, the “Plant response rating, Redroot pigweed” value (pigweed; [6]) was 3 and the “Redroot pigweed plant response rating” value (pigweed; [1]) was 6. For the same molecule, the “Plant response rating, Redroot pigweed” value (pigweed; [2]) was 8, the “Redroot pigweed plant response rating” value (pigweed; [3]) was 8 and the “Redroot pigweed plant response rating” value (pigweed; [8]) was 6. The “Redroot pigweed plant response rating” value (pigweed; [5]) was 8, the “Plant response rating, Blackgrass” value (blackgrass; [6]) was 0 and the “Blackgrass plant response rating” value (blackgrass; [7]) was 0. The “Blackgrass plant response rating” value (blackgrass; [1]) was 3, the “Plant response rating, Blackgrass” value (blackgrass; [2]) was 6 and the “Blackgrass plant response rating” value (blackgrass; [3]) was 8. For the same molecule, the “Plant response rating, Blackgrass” value (blackgrass; [4]) was 9, the “Blackgrass plant response rating” value (blackgrass; [8]) was 5 and the “Blackgrass plant response rating” value (blackgrass; [5]) was 6.
With CC(C)N(C(=O)n1oc(=O)n(C(C)C(=S)N(C)C)c1=O)c1ccc(Cl)cc1 (stereo not drawn) [Compound 733] the “Bedstraw plant response rating” value (bedstraw; [1]) was 0, the “Plant response rating, Bedstraw” value (bedstraw; [2]) was 0 and the “Bedstraw plant response rating” value (bedstraw; [3]) was 0. For the same molecule, the “Bedstraw plant response rating” value (bedstraw; [9]) was 0, the “Morningglory plant response rating” value (morningglory; [1]) was 1 and the “Plant response rating, Morningglory” value (morningglory; [2]) was 1. For the same molecule, the “Morningglory plant response rating” value (morningglory; [3]) was 2, the “Morningglory plant response rating” value (morningglory; [9]) was 2 and the “Rape plant response rating” value (rape; [1]) was 0. For the same molecule, the “Plant response rating, Rape” value (rape; [2]) was 0, the “Rape plant response rating” value (rape; [3]) was 3 and the “Rape plant response rating” value (rape; [9]) was 5. The “Sugarbeets plant response rating” value (sugar beet; [1]) was 0, the “Plant response rating, Sugarbeets” value (sugar beet; [2]) was 0 and the “Sugarbeets plant response rating” value (sugar beet; [3]) was 0. For the same molecule, the “Sugarbeets plant response rating” value (sugar beet; [9]) was 0, the “Velvetleaf plant response rating” value (velvetleaf; [1]) was 0 and the “Plant response rating, Velvetleaf” value (velvetleaf; [2]) was 0. For the same molecule, the “Velvetleaf plant response rating” value (velvetleaf; [3]) was 0, the “Velvetleaf plant response rating” value (velvetleaf; [9]) was 1 and the “Nutsedge plant response rating” value (purple nutsedge; [1]) was 0. For the same molecule, the “Plant response rating, Nutsedge” value (purple nutsedge; [2]) was 0, the “Nutsedge plant response rating” value (purple nutsedge; [3]) was 0 and the “Cocklebur plant response rating” value (cocklebur; [1]) was 0. For the same molecule, the “Plant response rating, Cocklebur” value (cocklebur; [2]) was 0, the “Cocklebur plant response rating” value (cocklebur; [3]) was 0 and the “Cocklebur plant response rating” value (cocklebur; [9]) was 0. For the same molecule, the “Wheat plant response rating” value (wheat; [1]) was 0, the “Plant response rating, Wheat” value (wheat; [2]) was 0 and the “Wheat plant response rating” value (wheat; [3]) was 0. The “Wheat plant response rating” value (wheat; [9]) was 0, the “Soybean plant response rating” value (soybean; [1]) was 0 and the “Plant response rating, Soybean” value (soybean; [2]) was 0. For the same molecule, the “Soybean plant response rating” value (soybean; [3]) was 0, the “Soybean plant response rating” value (soybean; [9]) was 0 and the “B. signalgrass plant response rating” value (surinam grass; [1]) was 6. The “Plant response rating, B. signalgrass” value (surinam grass; [2]) was 6, the “B. signalgrass plant response rating” value (surinam grass; [3]) was 8 and the “B. signalgrass plant response rating” value (surinam grass; [9]) was 10. For the same molecule, the “Corn plant response rating” value (corn; [1]) was 0, the “Plant response rating, Corn” value (corn; [2]) was 0 and the “Corn plant response rating” value (corn; [3]) was 0. For the same molecule, the “Corn plant response rating” value (corn; [9]) was 0, the “Giant foxtail plant response rating” value (giant foxtail; [1]) was 3 and the “Plant response rating, Giant foxtail” value (giant foxtail; [2]) was 6. The “Giant foxtail plant response rating” value (giant foxtail; [3]) was 9, the “Giant foxtail plant response rating” value (giant foxtail; [9]) was 9 and the “Crabgrass plant response rating” value (crabgrass; [1]) was 2. For the same molecule, the “Plant response rating, Crabgrass” value (crabgrass; [2]) was 5, the “Crabgrass plant response rating” value (crabgrass; [3]) was 9 and the “Crabgrass plant response rating” value (crabgrass; [9]) was 9. The “Wild oats plant response rating” value (wild oat; [1]) was 2, the “Plant response rating, Wild oats” value (wild oat; [2]) was 2 and the “Wild oats plant response rating” value (wild oat; [3]) was 2. For the same molecule, the “Wild oats plant response rating” value (wild oat; [9]) was 8, the “Redroot pigweed plant response rating” value (pigweed; [1]) was 0 and the “Plant response rating, Redroot pigweed” value (pigweed; [2]) was 0. For the same molecule, the “Redroot pigweed plant response rating” value (pigweed; [3]) was 5, the “Redroot pigweed plant response rating” value (pigweed; [9]) was 7 and the “Blackgrass plant response rating” value (blackgrass; [1]) was 4. For the same molecule, the “Plant response rating, Blackgrass” value (blackgrass; [2]) was 7, the “Blackgrass plant response rating” value (blackgrass; [3]) was 8 and the “Blackgrass plant response rating” value (blackgrass; [9]) was 10.
